# Experimental data: patent US20070248633A1, “COMPOSITIONS CONTAINING A HYDROXYLATED DIPHENYLMETHANE COMPOUND, METHODS OF USE” (L'OREAL, priority 2006, published 2007)
# Assay: Tests of solubilization of a hydroxylated diphenylmethane compound of formula (I) in solubilizers
# Format: physicochemical
# Conditions: for % max solubility of the hydroxylated diphenylmethane compound of formula (I): optionally heated to 45° C., stirred one hour
# Experimental: The compound Phenylethylbenzendiol marketed under the name Symwhite® by Symrise is used as hydroxylated diphenylmethane compound of formula (I).
# This compound is weighed and placed in a sealed specimen tube.
# Several solubilizers are tested: 10 ml of solubilizer are placed in a beaker and the compound Phenylethylbenzendiol is added mg per mg. The suspension, optionally heated to 45° C., is stirred by magnetic stirring for one hour.
# The dissolution or non-dissolution of the hydroxylated diphenylmethane compound of formula (I), and its variation over time are then monitored.
# The non-solubility of the hydroxylated diphenylmethane compound of formula (I) in the solubilizer is macroscopically characterized by a precipitate or just a cloudy solution, and microscopically by the presence of crystals.
structure (smiles),measurement,setting,value
"CC(c1ccccc1)c1ccc(O)cc1O (centres unmarked) [4-(1-phenylethyl)-1,3-benzenediol]",amount solubilized,solubilizer: 2-octyldodecanol,more than 20 % by weight
same,amount solubilized,solubilizer: Dicaprylyl carbonate,more than 20 % by weight
same,amount solubilized,solubilizer: dimethyl isosorbide,more than 20 % by weight
same,amount solubilized,solubilizer: isopropyl N-lauroylsarcosinate (remainder of the solution consisting of the solubilizer),up to 42 % by weight
same,amount solubilized,solubilizer: octyl methoxycinnamate,more than 20 % by weight
same,% max solubility of the hydroxylated diphenylmethane compound of formula (I),solvent: 2-Octyldodecanol (EUTANOL G from COGNIS),22.52%
same,% max solubility of the hydroxylated diphenylmethane compound of formula (I),solvent: Apricot oil (APRICOT KERNEL OIL from DESERT WHALE),10.00%
same,% max solubility of the hydroxylated diphenylmethane compound of formula (I),"solvent: Apricot oil (APRICOT KERNEL OIL from DESERT WHALE), listed as hydroxylated diphenylmethane compound (I)",≤ 10%
same,% max solubility of the hydroxylated diphenylmethane compound of formula (I),solvent: Dicaprylyl carbonate (CETIOL CC from COGNIS),26.74%
same,% max solubility of the hydroxylated diphenylmethane compound of formula (I),solvent: Dimethyl isosorbide (ARLASOLVE DMI from UNIQEMA),31.30%
same,% max solubility of the hydroxylated diphenylmethane compound of formula (I),"solvent: Hydrogenated isoparaffin (PARLEAM from NOF CORPORATION), paraffin oil",not soluble
same,% max solubility of the hydroxylated diphenylmethane compound of formula (I),"solvent: Hydrogenated isoparaffin (PARLEAM from NOF CORPORATION), paraffin oil, listed as hydroxylated diphenylmethane compound (I)",does not make it possible to solubilize
same,% max solubility of the hydroxylated diphenylmethane compound of formula (I),solvent: Isopropyl N-lauroylsarcosinate (ELDEW SL 205 from AJINOMOTO),42.00%
same,% max solubility of the hydroxylated diphenylmethane compound of formula (I),solvent: Octyl methoxycinnamate (PARSOL MCX from GIVAUDAN (DSM Nutritional Products)),26.00%
